According to patent publication US6803466B1, “HIV/FIV protease inhibitors having a small P3 residue” (The Scripps Research Institute, priority 1997, dated 2004):

Key:
HIV PR V82F = target: T1, HIV PR V82F (Human immunodeficiency virus type 1 group M subtype B, UniProt P03366, V582F); details: licensed drugs, literature; cited from earlier work
T1 construct: drug-resistant mutant HIV PRs G48V and V82F

HIV PR G48V = target: T2, HIV PR G48V (Human immunodeficiency virus type 1 group M subtype B, UniProt P03366, G548V); details: licensed drugs, literature; cited from earlier work
T2 construct: drug-resistant mutant HIV PRs G48V and V82F

[1] = test system: mutant FIV PRs (FIV(V59I), FIV(Q99V)); assay: Inhibition of mutant FIV PRs; assay type: biochemical, feline immunodeficiency virus
Experimental: The inhibitory effects of each inhibitor were evaluated against HIV and FIV PRs along with two mutant FIV PRs that contain amino acid substitutions corresponding to those in HIV PR at homologous sites.
(§1) For FIV PRs, the kinetic data were determined under the similar reaction conditions as for HIV PR.
Mutant FIV PRs were prepared that contained substitutions of HIV residues noted to be associated with drug resistance in HIV (16) at equivalent sites in the three dimensional structure.

FIV PR [2] = target: T3, FIV PR (Feline immunodeficiency virus, UniProt P16088, C122K/G43I/N93T); assay: Inhibition of FIV PR (Ki, IC50); assay type: biochemical
T3 construct: made in house; host or cells: E. coli BL21(DE3)
Experimental: The solution was mixed and incubated for 10 minutes at 37° C. and the reaction quenched by addition of 8M guanidine HCl solution containing 0.2 M sodium acetate at pH 4.2 (100 μL). The cleavage products and substrate were separated by reverse phase HPLC. Absorbance was measured at 215 nm, peak areas were determined and percent conversion to product was calculated using relative peak areas. […] IC50 was determined as the inhibitor concentration at 50% inhibition. […] ([S]=substrate concentration in nmol). The data used was generated similarly to that for Ki with the following modifications. The substrate concentrations used were 560, 448, 336, 224, 111 and 56 μM, in the absence of inhibitor.
(§2) Kinetic determinations for both HIV PR and FIV PRs were performed at 37° C. at pH 5.25 in duplicate using F-2000 fluorescence spectrophotometer (Hitachi).
as §1

[3] = test system: FIV-PPR in feline T-cells (104-C1); assay: Ex vivo inhibitor analysis against FIV, pelletable reverse transcriptase in culture supernatant; assay type: cell-based, feline immunodeficiency virus
Experimental: For FIV, the assays were performed in FIV-infected feline T-cells which were cultured in the presence of compound 1200 at different concentrations over the course of 1 month. Each data in FIG. 14 represents the amount of pelletable FIV reverse transcriptase in the culture supernatant. […] After one month, the drug-treated cultures were split and replated with and without compound 1200.
The lymphocytic cell line 104-C1 (provided by C. Grant) was used as the target for infection. Cells were cultured in RPMI-1640 media supplemented with 10% FBS, 200 μM L-Glutamine, 1×MEM-Vitamins, 100 μM Sodium Pyruvate, 1×Non-Essential Amino Acids, 5.5×10−5M b-ME, 50 μg/ml Gentamicin, 50 U/ml human recombinant Interleukin-2 (provided by Hoffmann-LaRoche) and 7.5 μg/ml Concanavalin-A. For inhibitor assessment, 5×10^6 cells were infected with FIV-PPR (4×105 RT units) in 1 mL culture for 2 hr at 37° C. […] The cells were then washed with Hanks-buffered saline solution (HBSS) and resuspended in 10 ml of complete medium. The compound 1200 (10 mg/mL in DMSO) was then added to final concentrations of 0.1, 0.5, 1, and 5 μg/ml in duplicate. The cells were then incubated at 37° C. The culture supernatants were monitored for the presence of pelletable reverse transcriptase activity at weekly intervals, as follows. Cell-free culture supernatants (4 ml) were centrifuged at 60K for 30 min and the pellets were resuspended in 100 μl of lysis buffer containing 40 mM TrisHCl (pH 8.1), 360 mM NaCl, 20 mM DTT and 0.2% NP40. Twenty five μl of lysate was added to 25 μl of a mixture containing polyrA-pdT (Pharmacia, Piscataway, N.J.), MgCl2, and 3H-labeled deoxythymidine 5′-triphosphate (DuPont NEN, Boston, Mass.), and incubated for 1 hr at 37° C. The mixture was spotted on DE81 paper, air-dried, fixed in 0.1 M sodium pyrophosphate, washed three times in 0.3 M ammonium formate, and an additional time in 95% ethanol. The paper was then dried and counted on a scintillation counter.
Cells were split 1:5 after the second, third, and fourth time points and fresh inhibitor was added at the appropriate concentration at each of these intervals. The data were expressed as values +/−standard deviation of the mean.

HIV PR = target: T4, HIV PR (Human immunodeficiency virus type 1 group M subtype B, UniProt P03366, Q507K); assay: Inhibition of HIV PR (Ki, IC50), fluorogenic substrate; assay type: biochemical
T4 construct: initiator Met plus the eight Pol residues preceding PR (N-terminal extension of the expressed precursor) (N); made in house; host or cells: E. coli BL21.DE3, pLysS
Experimental: The solution was mixed and incubated over 5 minutes during which time the rate of substrate cleavage was monitored by continuously recording the change in fluorescence of the assay solution. An excitation filter of 325 nm, and an emission filter of 420 nm were used.
Determination of Ki for HIV protease was performed similarly with the following modifications. The substrate concentrations used were 57, 43, 28 and 14 μM. All other concentrations were as above. The curve fit for the data was determined and the subsequent Ki derived using a computer program based on the equation of Morrison et. al. BioChim. Biophys. ACTA 1969,185, 269, for tight binding inhibitors.
as §2
For HIV PR, the KM and Vmax values for the fluorogenic peptide substrate 2-aminobenzoyl (Abz)-Thr-Ile-Nle-Phe-(p-NO2)-Gln-Arg-NH2 (SEQ ID NO: 3) Toth et al Int. J. Peptide Res. 36, 544-550 were determined by measuring the initial rate of hydrolysis at different substrate concentrations (5.0, 7.5, 10, 20, 35, 50, 100, and 200 μM) by monitoring the change in fluorescence at an excitation wavelength of 325 nm and an emission wavelength of 420 nm, and fitting the obtained data to the Michaelis-Menten equation using the Grafit program (version 3.0, Erithacus Software Ltd., UK). Assays were run in 0.1 M MES buffer, containing 5% (v/v) glycerol, and 5% (v/v) DMSO (200 μl final volume). The enzyme concentration (30 μg/ml) which gave ideal progress curve was used for assays, but the dimeric active HIV PR concentration was not accurately determined. […] The curve fit the data was determined, and the subsequent Ki was derived using the Grafit program.

FIV PR [4] = target: T3, FIV PR; details: relative to HIV PR; Slee et al.; cited from earlier work

Structure (SMILES): CC(C)c1nc(CN(C)C(=O)N[C@H](C(=O)N[C@@H](Cc2ccccc2)C[C@H](O)[C@H](Cc2ccccc2)NC(=O)OCc2cncs2)C(C)C)cs1 [ABT-538]
- higher IC50 / less sensitive, V82F mutant compared to wild-type HIV PR (HIV PR V82F): 90 fold
- higher IC50 / decreased potency, G48V mutant compared to wild-type HIV PR (HIV PR G48V): 17 fold

Structure (SMILES): Cc1c(O)cccc1C(=O)N[C@@H](CSc1ccccc1)[C@H](O)CN1C[C@H]2CCCC[C@H]2C[C@H]1C(=O)NC(C)(C)C [AG-1343]
- higher IC50 / less sensitive, V82F mutant compared to wild-type HIV PR (HIV PR V82F): 15 fold

Structure (SMILES): CC(C)[C@H](NC(=O)[C@H](Cc1ccccc1)NC(=O)OCc1ccccc1)C(=O)N[C@@H](Cc1ccccc1)[C@@H](O)[C@H](O)[C@H](Cc1ccccc1)NC(=O)[C@@H](NC(=O)[C@H](Cc1ccccc1)NC(=O)OCc1ccccc1)C(C)C [Compound 10b]
- activity against mutant FIV PRs compared to wild type FIV PR (in words) [1]: very similar activities
- Ki (FIV PR [2]): 7000 nM
- lower potency than 1b against FIV PR (FIV PR [2]; versus 1b): 170 fold
- lower potency compared to 1100, FIV PR (FIV PR [2]; versus 1100): 45 fold
- Ki higher / potency lower than 1200, FIV PR (FIV PR [2]; versus 1200): 170 fold

Structure (SMILES): CC(C)[C@H](NC(=O)[C@H](CO)NC(=O)OCc1ccccc1)C(=O)N[C@@H](Cc1ccccc1)[C@@H](O)[C@H](O)[C@H](Cc1ccccc1)NC(=O)[C@@H](NC(=O)[C@H](CO)NC(=O)OCc1ccccc1)C(C)C [Compound 12]
- prevention of FIV infection in tissue culture (in words) [3]: not as effective as 1b
- Ki (HIV PR): 0.58 nM
- inhibition of HIV PR (in words) (HIV PR): effective inhibitors
- higher potency against HIV PR compared to 1b (HIV PR; versus 1b): 3 fold
- Ki (FIV PR [2]): 32 nM
- inhibition of FIV PR (in words) (FIV PR [2]): effective inhibitors

Structure (SMILES): CC(C)(C)NC(=O)[C@@H]1CN(Cc2cccnc2)CCN1C[C@@H](O)C[C@@H](Cc1ccccc1)C(=O)N[C@H]1c2ccccc2C[C@H]1O [MK-639]
- higher IC50 / less sensitive, V82F mutant compared to wild-type HIV PR (HIV PR V82F): 7 fold

Structure (SMILES): CC(C)(C)NC(=O)[C@@H]1C[C@@H]2CCCC[C@@H]2CN1C[C@@H](O)[C@H](Cc1ccccc1)NC(=O)[C@H](CC(N)=O)NC(=O)c1ccc2ccccc2n1 [RO31-8959, reference compound]
- Ki (HIV PR): 1.6 nM
- less efficient inhibitor of FIV PR, factor (FIV PR [4]): ≥ 100
- Ki (FIV PR [2]): 76000 nM
- inhibition of FIV PR (in words) (FIV PR [2]): total loss of potency
- higher IC50 / decreased potency, G48V mutant compared to wild-type HIV PR (HIV PR G48V): 27 fold
